Measured values as given in the supplement of paper PMC10307832.

What was measured:
Experiment in all cases: relative viability (nuclei count vs DMSO), 5 days (fraction); higher = more cells survive
VX-11e + Trametinib = compound: CC1=CN=C(N=C1C2=CNC(=C2)C(=O)N[C@H](CO)C3=CC(=CC=C3)Cl)NC4=C(C=C(C=C4)F)Cl [VX-11e] + CC(=O)Nc1cccc(-n2c(=O)n(C3CC3)c(=O)c3c(Nc4ccc(I)cc4F)n(C)c(=O)c(C)c32)c1 [Trametinib] (partner 0.02 µM)
In short: (§1)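 Cells from lung cancer lines were seeded into 1536-well plates and, one day later, dosed by pin tool. Treatments were either a single drug or a fixed dose of an anchor drug with five library-drug doses (not always all listed) in √10 steps. After 5 days, nuclei were stained in a one-step fixation (final 0.05% Triton X-100, 1% formaldehyde, 1 ug/ml Hoechst) and counted on 4× images, and relative viability is the treated-to-vehicle nuclei ratio, as the median of duplicate plates.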

VX-11e + Navitoclax = compound: CC1=CN=C(N=C1C2=CNC(=C2)C(=O)N[C@H](CO)C3=CC(=CC=C3)Cl)NC4=C(C=C(C=C4)F)Cl [VX-11e] + CC1(C)CCC(c2ccc(Cl)cc2)=C(CN2CCN(c3ccc(C(=O)NS(=O)(=O)c4ccc(N[C@H](CCN5CCOCC5)CSc5ccccc5)c(S(=O)(=O)C(F)(F)F)c4)cc3)CC2)C1 [Navitoclax] (partner 0.5 µM)
In short: as §1

VX-11e + Phenformin = compound: CC1=CN=C(N=C1C2=CNC(=C2)C(=O)N[C@H](CO)C3=CC(=CC=C3)Cl)NC4=C(C=C(C=C4)F)Cl [VX-11e] + N=C(N)NC(=N)NCCc1ccccc1 [Phenformin] (partner 250 µM)
In short: as §1

VX-11e + Pemetrexed = compound: CC1=CN=C(N=C1C2=CNC(=C2)C(=O)N[C@H](CO)C3=CC(=CC=C3)Cl)NC4=C(C=C(C=C4)F)Cl [VX-11e] + Nc1nc2[nH]cc(CCc3ccc(C(=O)N[C@@H](CCC(=O)O)C(=O)O)cc3)c2c(=O)[nH]1 [Pemetrexed] (partner 0.2 µM)
In short: as §1

Cell Line	relative viability (VX-11e + Trametinib; first compound 0.04 µM)	relative viability (VX-11e + Trametinib; first compound 0.1265 µM)	relative viability (VX-11e + Trametinib; first compound 0.4 µM)	relative viability (VX-11e + Trametinib; first compound 1.265 µM)	relative viability (VX-11e + Trametinib; first compound 4 µM)	relative viability (VX-11e + Navitoclax; first compound 0.04 µM)	relative viability (VX-11e + Navitoclax; first compound 0.1265 µM)	relative viability (VX-11e + Navitoclax; first compound 0.4 µM)	relative viability (VX-11e + Navitoclax; first compound 1.265 µM)	relative viability (VX-11e + Navitoclax; first compound 4 µM)	relative viability (VX-11e + Phenformin; first compound 0.04 µM)	relative viability (VX-11e + Phenformin; first compound 0.1265 µM)	relative viability (VX-11e + Phenformin; first compound 1.265 µM)	relative viability (VX-11e + Phenformin; first compound 4 µM)	relative viability (VX-11e + Pemetrexed; first compound 0.04 µM)	relative viability (VX-11e + Pemetrexed; first compound 0.1265 µM)	relative viability (VX-11e + Pemetrexed; first compound 0.4 µM)	relative viability (VX-11e + Pemetrexed; first compound 1.265 µM)	relative viability (VX-11e + Pemetrexed; first compound 4 µM)	relative viability (VX-11e + Phenformin; first compound 0.4 µM)
NCI-H1650	0.76	0.589	0.562	0.553	0.397	1.21	1.07	1.08	0.856	0.374	0.478	0.343	0.315	0.295	0.323	0.335	0.334	0.377	0.305	
EKVX	0.385	0.353	0.293	0.395	0.207	0.847	0.935	0.926	0.831	0.601	0.211	0.237	0.216	0.197	0.314	0.444	0.33	0.383	0.225	0.13
NCI-H1975	0.341	0.295	0.171	0.255	0.21	1.03	1.09	1.13	1.06	0.612	0.443	0.362	0.393	0.199	0.307	0.276	0.295	0.27	0.258	0.261
NCI-H1993		0.493	0.576	0.506	0.451		1.03		0.804	0.612	0.547	0.49	0.517	0.518		0.537	0.457	0.58	0.521	0.484
LU99A	0.504	0.316	0.421	0.272	0.258	0.82	0.925	0.651	0.335	0.161	0.881	0.754	0.907	0.382	0.184	0.138	0.201	0.182	0.188	0.28
NCI-H322M	0.468	0.484	0.426	0.586	0.46	1.24		1.23	1.06	0.672	0.691	0.507	0.661	0.534	0.623	0.658	0.641	0.497	0.594	0.7
NCI-H2347	0.282	0.261	0.297	0.241	0.267	0.932	0.818	0.683	0.352	0.213	0.462	0.488	0.43	0.211	0.412	0.442	0.423	0.389	0.368	0.206
HOP-62	0.381	0.428	0.296	0.179	0.151	0.992	0.891	1.02	0.46	0.582	0.754	0.647	0.421	0.377	0.348	0.264	0.277	0.192	0.22	0.524
ChaGo-K-1	0.928	0.909	0.842	0.881	0.869	0.616		1.07	0.781	0.787	0.435	0.478	0.472	0.407	0.268	0.261	0.248	0.25	0.234	0.382
NCI-H460	0.134	0.161	0.0116	0.0437	0.0311	1.37	1.16	1.13	0.542	0.0727	0.588	0.471	0.174	0.0711	0.0706	0.0577	0.0649	0.0564	0.0528	0.127
HCC-78	0.827	0.651	0.632	0.559	0.387	0.878	0.69	0.769	0.455	0.762		0.75	0.672	0.738	0.938	0.859	0.884	0.858	0.919	0.857
